In patent US20130261130A1, “NEUROTRYPSIN INHIBITORS” (priority 2010, published 2013):

The compounds below were run against T1, human neurotrypsin (Homo sapiens, UniProt P56730) (assay: Determination of IC50 for human neurotrypsin). Settings: human neurotrypsin; method of WO 2006/1103261; read-out: Neurotrypsin IC50.
T1 sequence (P56730 21-875): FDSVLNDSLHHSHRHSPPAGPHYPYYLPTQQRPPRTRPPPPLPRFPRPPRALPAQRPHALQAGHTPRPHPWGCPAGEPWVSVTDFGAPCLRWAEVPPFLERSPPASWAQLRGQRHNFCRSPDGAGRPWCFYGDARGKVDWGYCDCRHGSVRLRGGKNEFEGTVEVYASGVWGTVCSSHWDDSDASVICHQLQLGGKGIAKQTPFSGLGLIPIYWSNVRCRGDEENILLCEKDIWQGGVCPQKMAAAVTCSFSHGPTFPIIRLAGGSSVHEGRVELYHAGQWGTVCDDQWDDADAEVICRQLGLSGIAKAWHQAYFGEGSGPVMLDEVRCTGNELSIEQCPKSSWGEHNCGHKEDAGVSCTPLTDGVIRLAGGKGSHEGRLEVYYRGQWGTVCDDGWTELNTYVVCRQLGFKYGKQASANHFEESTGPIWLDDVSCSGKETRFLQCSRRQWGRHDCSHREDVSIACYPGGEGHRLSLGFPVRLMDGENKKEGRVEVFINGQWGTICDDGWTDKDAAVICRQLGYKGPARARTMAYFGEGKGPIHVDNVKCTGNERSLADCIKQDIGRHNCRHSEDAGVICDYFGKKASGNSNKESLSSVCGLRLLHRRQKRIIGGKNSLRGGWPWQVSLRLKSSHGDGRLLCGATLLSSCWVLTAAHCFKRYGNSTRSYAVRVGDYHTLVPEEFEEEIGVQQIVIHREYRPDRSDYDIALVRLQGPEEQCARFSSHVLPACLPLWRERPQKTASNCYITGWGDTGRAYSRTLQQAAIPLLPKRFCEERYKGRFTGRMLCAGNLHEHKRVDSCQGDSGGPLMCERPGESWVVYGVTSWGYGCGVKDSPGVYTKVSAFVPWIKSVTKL
Type: biochemical
Procedure: Assessment of the potency of compounds of examples 1-311 in inhibiting the enzymatic activity of human neurotrypsin was performed according to the method described in patent application WO 2006/1103261

Compound	IC50
2-(6-Chlorobenzo[b]-thiophene-2-carboxamido)-5-((5-chlorothiophen-2-yl-methyl)carbamoyl)benzoic acid [Example 107]	4.8 µM
4-(4-tert-Butoxyphenyl-carbamoyl)-3-(3-chloro-thiophene-2-carboxamido)-benzoic acid [Example 194]	5.9 µM
5-(N-4-Butylphenyl-N-methyl-carbamoyl)-2-(4-(5,6-dichloro-1H-benzo[d]-imidazol-2-yl)benzamido)-benzoic acid [Example 44]	1.6 µM
O=C(Nc1ccc(Cl)cc1)c1ccc(C(=O)O)c(NC(=O)c2sc3ccccc3c2Cl)c1 [Example 1, 2-(3-Chlorobenzo[b]thiophene-2-carboxamido)-4-(4-chlorophenylcarbamoyl)-benzoic acid]	8.5 µM
O=C(Nc1ccc(Cl)cc1)c1ccc(C(=O)O)c(NC(=O)c2ccc(-c3ccccc3)s2)c1 [Example 9, 4-(4-Chlorophenyl-carbamoyl)-2-(5-phenyl-thiophene-2-carboxamido)-benzoic acid]	25.7 µM
O=C(Nc1ccc(Cl)cn1)c1ccc(C(=O)O)c(NC(=O)c2sc3ccccc3c2Cl)c1 [Example 16, 2-(3-Chlorobenzo[b]-thiophene-2-carboxamido)-4-(5-chloropyridin-2-yl-carbamoyl)benzoic acid]	8 µM
O=C(Nc1ccc(Cl)cc1)c1ccc(C(=O)O)c(NC(=O)c2sc3cc(Cl)ccc3c2Cl)c1 [Example 18, 4-(4-Chlorophenyl-carbamoyl)-2-(3,6-dichloro-benzo[b]thiophene-2-carboxamido)benzoic acid]	8.3 µM
O=C(Nc1ccc(Cl)cc1)c1ccc(C(=O)O)c(NC(=O)c2cc3ccc(Cl)cc3s2)c1 [Example 23]	2.6 µM
O=C(O)c1ccc(C(=O)N2CCC(Cc3ccccc3)CC2)cc1NC(=O)c1sc2ccccc2c1Cl [Example 24, 4-(4-Benzylpiperidine-1-carbonyl)-2-(3-chloro-benzo[b]thiophene-2-carboxamido)benzoic acid]	4 µM
O=C(O)c1cc(C(=O)N2CCC(c3c(Cl)cccc3Cl)CC2)ccc1NC(=O)c1sc2ccccc2c1Cl [Example 35, 2-(3-Chlorobenzo[b]-thiophene-2-carboxamido)-5-(4-(2,6-dichlorophenyl)-piperidine-1-carbonyl)benzoic acid]	3.2 µM
O=C(Nc1ccc(Cl)cc1)c1ccc(NC(=O)c2ccc(-c3nc4ccccc4[nH]3)cc2)c(C(=O)O)c1 [Example 36, 2-(4-(1H-Benzo[d]imidazol-2-yl)benzamido)-5-(4-chloro-phenylcarbamoyl)benzoic acid]	3.5 µM
O=C(Nc1ccc(Cl)cc1)c1ccc(NC(=O)c2ccc(-c3nc4cc(Cl)ccc4[nH]3)cc2)c(C(=O)O)c1 [Example 37, 2-(4-(5-Chloro-1H-benzo[d]-imidazol-2-yl)benzamido)-5-(4-chlorophenylcarbamoyl)-benzoic acid]	1.6 µM
O=C(Nc1ccc(C(=O)N2CCC(c3ccc(F)cc3)CC2)cc1C(=O)O)c1ccc(-c2nc3cc(Cl)c(Cl)cc3[nH]2)cc1 [Example 38, 2-(4-(5,6-Dichloro-1H-benzo[d]imidazol-2-yl)-benzamido)-5-(4-(4-fluorophenyl)piperidine-1-carbonyl)benzoic acid]	4.8 µM
CC(C)CCN(C)C(=O)c1ccc(NC(=O)c2ccc(-c3nc4cc(Cl)c(Cl)cc4[nH]3)cc2)c(C(=O)O)c1 [Example 43, 2-(4-(5,6-Dichloro-1H-benzo[d]imidazol-2-yl)-benzamido)-5-(N-isopentyl-N-methylcarbamoyl)benzoic acid]	3.9 µM

Further lines, results first:

IC50	Compound
9.7 µM	3-Chloro-N-(5-(5-chloro-1,3-thiazol-2-ylcarbamoyl)-2-(2H-tetrazol-5-yl)phenyl)benzo[b]-thiophene-2-carboxamide [Example 227]
1.9 µM	O=C(Nc1ccc(Cl)cc1F)c1ccc(C(=O)O)c(NC(=O)c2sc3ccccc3c2Cl)c1 [Example 5, 2-(3-Chlorobenzo[b]-thiophene-2-carboxamido)-4-(4-chloro-2-fluoro-phenyl-carbamoyl)benzoic acid]
> 150 µM	O=C(O)c1ccc(C(=O)Nc2ccc(Cl)cc2)c(NC(=O)c2ccc(-c3ccccc3)s2)c1 [Example 25, 4-(4-Chlorophenyl-carbamoyl)-3-(5-phenyl-thiophene-2-carboxamido)-benzoic acid]
3.2 µM	O=C(Nc1ccc(Cl)cc1)c1ccc(NC(=O)c2sc3ccccc3c2Cl)c(C(=O)O)c1 [Example 26, 2-(3-Chlorobenzo[b]-thiophene-2-carboxamido)-5-(4-chlorophenylcarbamoyl)-benzoic acid]
5 µM	O=C(Nc1ncc(Cl)s1)c1ccc(C(=O)O)c(NC(=O)c2ccc(-c3ccc(F)cc3)s2)c1 [Example 27, 4-(5-Chlorothiazol-2-yl-carbamoyl)-2-(5-(4-fluorophenyl)thiophene-2-carboxamido)benzoic acid]
11.3 µM	O=C(O)c1ccc(C(=O)N2CCC(Oc3ccccc3)CC2)cc1NC(=O)c1sc2ccccc2c1Cl [Example 28, 2-(3-Chlorobenzo[b]-thiophene-2-carboxamido)-4-(4-phenoxypiperidine-1-carbonyl)benzoic acid]
13.6 µM	O=C(NC1CCCc2ccccc21)c1ccc(C(=O)O)c(NC(=O)c2sc3ccccc3c2Cl)c1 (stereo not drawn) [Example 32, 2-(3-Chlorobenzo[b]-thiophene-2-carboxamido)-4-(1,2,3,4-tetrahydro-naphthalen-1-ylcarbamoyl)-benzoic acid]
4.5 µM	O=C(NC12CC3CC(CC(C3)C1)C2)c1ccc(C(=O)O)c(NC(=O)c2sc3ccccc3c2Cl)c1 [Example 33, 2-(3-Chlorobenzo[b]-thiophene-2-carboxamido)-4-(adamantylcarbamoyl)-benzoic acid]
14.1 µM	O=C(N[C@@H]1C[C@H]2CC[C@@H]1C2)c1ccc(C(=O)O)c(NC(=O)c2sc3ccccc3c2Cl)c1 [Example 34, 4-((1R,2R,4S)-Bicyclo[2.2.1]-heptan-2-ylcarbamoyl)-2-(3-chlorobenzo[b]thiophene-2-carboxamido)benzoic acid]
0.8 µM	O=C(Nc1ccc(Cl)cc1)c1ccc(C(=O)O)c(NC(=O)c2ccc(-c3nc4cc(Cl)c(Cl)cc4[nH]3)cc2)c1 [Example 40, 4-(4-Chlorophenyl-carbamoyl)-2-(4-(5,6-di-chloro-1H-benzo[d]imidazol-2-yl)benzamido)benzoic acid]
4.4 µM	CC(C)CN(CC(C)C)C(=O)c1ccc(NC(=O)c2ccc(-c3nc4cc(Cl)c(Cl)cc4[nH]3)c(O)c2)c(C(=O)O)c1 [Example 42, 2-(4-(5,6-Dichloro-1H-benzo[d]imidazol-2-yl)-3-hydroxybenzamido)-5-(diisobutylcarbamoyl)benzoic acid]
1.5 µM	CC(C)CN(C(=O)c1ccc(NC(=O)c2ccc(-c3nc4cc(Cl)c(Cl)cc4[nH]3)cc2)c(C(=O)O)c1)c1ccc(Cl)cc1 [Example 45, 5-(N-4-Chlorophenyl-N-isobutylcarbamoyl)-2-(4-(5,6-dichloro-1H-benzo[d]-imidazol-2-yl)benzamido)-benzoic acid]
3.4 µM	CC(C)CN(CC(C)C)C(=O)c1ccc(NC(=O)c2ccc(-c3nc4cc(Cl)c(Cl)cc4n3C)cc2)c(C(=O)O)c1 [Example 46, 2-(4-(5,6-Dichloro-1-methyl-1H-benzo[d]imidazol-2-yl)benzamido)-5-(diisobutyl-carbamoyl)benzoic acid]
